Data as given in US6355799B1, “Substituted benzene compounds, process for their preparation, and herbicidal and defoliant compositions containing them” (ISK Americas Incorporated, priority 1997, dated 2002).

Legend:
Assay type in all cases: in vivo
[1] = tested on: redroot pigweed (Amaranthus retroflexus, AMARE); assay: Pre-emerge test, greenhouse herbicide activity screening; details: rated 14 days after application, 0 = no damage, 100 = complete death
Outline: (§1)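 Compounds in acetone were track-sprayed at 187 l/ha, 15–1000 g ai/ha, onto sandy loam pots. Pre-emerge seeds were sown one day before spraying, with surface watering afterwards. Post-emerge plants were at the 2–3 leaf stage and sprayed with 0.25% v/v non-ionic surfactant. Injury was rated 0–100 at 14 days.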

[2] = tested on: barnyardgrass (Echinochloa crus-galli, ECHCG); assay: as above; details: rated 14 days after application, 0 = no damage, 100 = complete death
Outline: (§2)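 Plants grown in 10 cm pots of sandy loam mix received acetone-dissolved compounds through a moving flat-fan nozzle. Doses ranged from 15 to 1000 g ai/ha. Pre-emerge pots were seeded one day earlier, post-emerge pots 8–21 days earlier. Fourteen days on, each pot was graded 0–100 for damage.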

[3] = tested on: green foxtail (Setaria viridis, SETVI); assay: as above; details: rated 14 days after application, 0 = no damage, 100 = complete death
Outline: as §2

[4] = tested on: ivyleaf morningglory (Ipomoea hederacea, IPOHE); assay: as above; details: rated 14 days after application, 0 = no damage, 100 = complete death
Outline: as §2

[5] = tested on: johnsongrass (Sorghum halepense, SORHA); assay: as above; details: rated 14 days after application, 0 = no damage, 100 = complete death
Outline: as §2

[6] = tested on: lambsquarters (Chenopodium album, CHEAL); assay: as above; details: rated 14 days after application, 0 = no damage, 100 = complete death
Outline: as §2

[7] = tested on: large crabgrass (Digitaria sanguinalis, DIGSA); assay: as above; details: rated 14 days after application, 0 = no damage, 100 = complete death
Outline: as §2

[8] = tested on: sicklepod (Cassia obtusifolia, CASOB); assay: as above; details: rated 14 days after application, 0 = no damage, 100 = complete death
Outline: as §2

[9] = tested on: velvetleaf (Abutilon theophrasti, ABUTH); assay: as above; details: rated 14 days after application, 0 = no damage, 100 = complete death
Outline: as §2

[10] = tested on: field corn (Zea mays L., var. Dekalb 535, CORN); assay: Pre-emerge test, crop safety; details: rated 14 days after application, 0 = no damage, 100 = complete death
Outline: as §1

[11] = tested on: upland rice (Oryza sp., var. Tebonnet, RICE); assay: Pre-emerge test, crop safety; details: rated 14 days after application, 0 = no damage, 100 = complete death
Outline: as §1

[12] = tested on: barnyardgrass (Echinochloa crus-galli, ECHCG); assay: Post-emerge test, greenhouse herbicide activity screening; details: post-emerge, 14 days after application, rating scale 0-100
Outline: (§3)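 Rating: 0–100 visual injury, 14 DAA. Application: acetone, 187 l/ha, 15–1000 g ai/ha, flat-fan track sprayer with nozzle 40–45 cm above soil or canopy. Post-emerge runs used 0.25% v/v surfactant on 2–3 leaf plants.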

[13] = tested on: green foxtail (Setaria viridis, SETVI); assay: as above; details: post-emerge, 14 days after application, rating scale 0-100
Outline: as §3

[14] = tested on: ivyleaf morningglory (Ipomoea hederacea, IPOHE); assay: as above; details: post-emerge, 14 days after application, rating scale 0-100
Outline: as §3

[15] = tested on: johnsongrass (Sorghum halepense, SORHA); assay: as above; details: post-emerge, 14 days after application, rating scale 0-100
Outline: as §3

[16] = tested on: lambsquarters (Chenopodium album, CHEAL); assay: as above; details: post-emerge, 14 days after application, rating scale 0-100
Outline: as §3

[17] = tested on: large crabgrass (Digitaria sanguinalis, DIGSA); assay: as above; details: post-emerge, 14 days after application, rating scale 0-100
Outline: as §3

[18] = tested on: redroot pigweed (Amaranthus retroflexus, AMARE); assay: as above; details: post-emerge, 14 days after application, rating scale 0-100
Outline: as §3

[19] = tested on: sicklepod (Cassia obtusifolia, CASOB); assay: as above; details: post-emerge, 14 days after application, rating scale 0-100
Outline: as §3

[20] = tested on: velvetleaf (Abutilon theophrasti, ABUTH); assay: as above; details: post-emerge, 14 days after application, rating scale 0-100
Outline: as §3

[21] = tested on: field corn (Zea mays L., var. Dekalb 535, CORN); assay: Post-emerge test, crop safety; details: post-emerge, 14 days after application, rating scale 0-100
Outline: (§4)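 Each test used a mechanized track sprayer delivering 187 l/ha of acetone solution at 15–1000 g ai/ha. Post-emerge foliage at 2–3 leaves was treated with added 0.25% v/v non-ionic surfactant and bottom-watered only. Injury was assessed on day 14, where 100 means total kill.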

[22] = tested on: upland rice (Oryza sp., var. Tebonnet, RICE); assay: Post-emerge test, crop safety; details: post-emerge, 14 days after application, rating scale 0-100
Outline: as §4

COc1c(Cl)cc(F)c(-n2c(=O)cc(C(F)(F)F)n(C)c2=O)c1NC(=O)C=Cc1ccccc1 [2-78]
80: Pre-emerge Herbicidal Activity, phytotoxicity rating (0-100), SORHA ([5]; 250 g ai/ha) | phytotoxicity rating IPOHE ([14]; 63 g ai/ha)
100: Pre-emerge Herbicidal Activity, phytotoxicity rating (0-100), AMARE ([1]; 63 g ai/ha) | Pre-emerge Herbicidal Activity, phytotoxicity rating (0-100), AMARE ([1]; 250 g ai/ha) | Pre-emerge Herbicidal Activity, phytotoxicity rating (0-100), ECHCG ([2]; 250 g ai/ha) | Pre-emerge Herbicidal Activity, phytotoxicity rating (0-100), SETVI ([3]; 250 g ai/ha) | Pre-emerge Herbicidal Activity, phytotoxicity rating (0-100), IPOHE ([4]; 250 g ai/ha) | Pre-emerge Herbicidal Activity, phytotoxicity rating (0-100), CHEAL ([6]; 63 g ai/ha) | Pre-emerge Herbicidal Activity, phytotoxicity rating (0-100), CHEAL ([6]; 250 g ai/ha) | Pre-emerge Herbicidal Activity, phytotoxicity rating (0-100), DIGSA ([7]; 250 g ai/ha) | Pre-emerge Herbicidal Activity, phytotoxicity rating (0-100), CASOB ([8]; 63 g ai/ha) | Pre-emerge Herbicidal Activity, phytotoxicity rating (0-100), CASOB ([8]; 250 g ai/ha) | Pre-emerge Herbicidal Activity, phytotoxicity rating (0-100), ABUTH ([9]; 63 g ai/ha) | Pre-emerge Herbicidal Activity, phytotoxicity rating (0-100), ABUTH ([9]; 250 g ai/ha) | phytotoxicity rating IPOHE ([14]; 250 g ai/ha) | phytotoxicity rating CHEAL ([16]; 63 g ai/ha) | phytotoxicity rating CHEAL ([16]; 250 g ai/ha) | phytotoxicity rating AMARE ([18]; 63 g ai/ha) | phytotoxicity rating AMARE ([18]; 250 g ai/ha) | phytotoxicity rating CASOB ([19]; 250 g ai/ha) | phytotoxicity rating ABUTH ([20]; 63 g ai/ha) | phytotoxicity rating ABUTH ([20]; 250 g ai/ha)
10: Pre-emerge Herbicidal Activity, phytotoxicity rating (0-100), ECHCG ([2]; 63 g ai/ha) | Pre-emerge Herbicidal Activity, phytotoxicity rating (0-100), SORHA ([5]; 63 g ai/ha) | Pre-emerge phytotoxicity rating (0-100), crop damage, CORN ([10]; 250 g ai/ha) | phytotoxicity rating ECHCG ([12]; 63 g ai/ha) | phytotoxicity rating ECHCG ([12]; 250 g ai/ha) | phytotoxicity rating SORHA ([15]; 250 g ai/ha)
30: Pre-emerge Herbicidal Activity, phytotoxicity rating (0-100), DIGSA ([7]; 63 g ai/ha) | phytotoxicity rating SETVI ([13]; 63 g ai/ha) | phytotoxicity rating SETVI ([13]; 250 g ai/ha) | phytotoxicity rating CORN ([21]; 250 g ai/ha)
65: phytotoxicity rating RICE ([22]; 250 g ai/ha)
70: phytotoxicity rating CASOB ([19]; 63 g ai/ha)
50: phytotoxicity rating RICE ([22]; 63 g ai/ha)
25: phytotoxicity rating CORN ([21]; 63 g ai/ha)
40: Pre-emerge phytotoxicity rating (0-100), crop damage, RICE ([11]; 63 g ai/ha)
0: Pre-emerge phytotoxicity rating (0-100), crop damage, CORN ([10]; 63 g ai/ha) | phytotoxicity rating SORHA ([15]; 63 g ai/ha) | phytotoxicity rating DIGSA ([17]; 63 g ai/ha) | phytotoxicity rating DIGSA ([17]; 250 g ai/ha)
20: Pre-emerge Herbicidal Activity, phytotoxicity rating (0-100), IPOHE ([4]; 63 g ai/ha)
95: Pre-emerge phytotoxicity rating (0-100), crop damage, RICE ([11]; 250 g ai/ha)
90: Pre-emerge Herbicidal Activity, phytotoxicity rating (0-100), SETVI ([3]; 63 g ai/ha)

COc1c(Cl)cc(F)c(-n2c(=O)cc(C(F)(F)F)n(C)c2=O)c1NC(=O)C(C)=Cc1ccccc1 [2-81]
0: Pre-emerge phytotoxicity rating (0-100), crop damage, CORN ([10]; 63 g ai/ha)
30: phytotoxicity rating CORN ([21]; 63 g ai/ha)
80: phytotoxicity rating SORHA ([15]; 250 g ai/ha) | phytotoxicity rating DIGSA ([17]; 250 g ai/ha)
100: Pre-emerge Herbicidal Activity, phytotoxicity rating (0-100), AMARE ([1]; 63 g ai/ha) | Pre-emerge Herbicidal Activity, phytotoxicity rating (0-100), AMARE ([1]; 250 g ai/ha) | Pre-emerge Herbicidal Activity, phytotoxicity rating (0-100), ECHCG ([2]; 250 g ai/ha) | Pre-emerge Herbicidal Activity, phytotoxicity rating (0-100), SETVI ([3]; 63 g ai/ha) | Pre-emerge Herbicidal Activity, phytotoxicity rating (0-100), SETVI ([3]; 250 g ai/ha) | Pre-emerge Herbicidal Activity, phytotoxicity rating (0-100), IPOHE ([4]; 250 g ai/ha) | Pre-emerge Herbicidal Activity, phytotoxicity rating (0-100), CHEAL ([6]; 63 g ai/ha) | Pre-emerge Herbicidal Activity, phytotoxicity rating (0-100), CHEAL ([6]; 250 g ai/ha) | Pre-emerge Herbicidal Activity, phytotoxicity rating (0-100), DIGSA ([7]; 63 g ai/ha) | Pre-emerge Herbicidal Activity, phytotoxicity rating (0-100), DIGSA ([7]; 250 g ai/ha) | Pre-emerge Herbicidal Activity, phytotoxicity rating (0-100), CASOB ([8]; 250 g ai/ha) | Pre-emerge Herbicidal Activity, phytotoxicity rating (0-100), ABUTH ([9]; 63 g ai/ha) | Pre-emerge Herbicidal Activity, phytotoxicity rating (0-100), ABUTH ([9]; 250 g ai/ha) | phytotoxicity rating IPOHE ([14]; 63 g ai/ha) | phytotoxicity rating IPOHE ([14]; 250 g ai/ha) | phytotoxicity rating CHEAL ([16]; 250 g ai/ha) | phytotoxicity rating AMARE ([18]; 63 g ai/ha) | phytotoxicity rating AMARE ([18]; 250 g ai/ha) | phytotoxicity rating CASOB ([19]; 250 g ai/ha) | phytotoxicity rating ABUTH ([20]; 63 g ai/ha) | phytotoxicity rating ABUTH ([20]; 250 g ai/ha)
20: phytotoxicity rating SORHA ([15]; 63 g ai/ha) | phytotoxicity rating DIGSA ([17]; 63 g ai/ha)
50: phytotoxicity rating ECHCG ([12]; 63 g ai/ha)
90: Pre-emerge Herbicidal Activity, phytotoxicity rating (0-100), SORHA ([5]; 63 g ai/ha) | Pre-emerge Herbicidal Activity, phytotoxicity rating (0-100), SORHA ([5]; 250 g ai/ha) | Pre-emerge Herbicidal Activity, phytotoxicity rating (0-100), CASOB ([8]; 63 g ai/ha) | Pre-emerge phytotoxicity rating (0-100), crop damage, CORN ([10]; 250 g ai/ha) | Pre-emerge phytotoxicity rating (0-100), crop damage, RICE ([11]; 250 g ai/ha) | phytotoxicity rating ECHCG ([12]; 250 g ai/ha) | phytotoxicity rating CHEAL ([16]; 63 g ai/ha) | phytotoxicity rating CORN ([21]; 250 g ai/ha) | phytotoxicity rating RICE ([22]; 250 g ai/ha)
70: Pre-emerge Herbicidal Activity, phytotoxicity rating (0-100), ECHCG ([2]; 63 g ai/ha) | Pre-emerge phytotoxicity rating (0-100), crop damage, RICE ([11]; 63 g ai/ha) | phytotoxicity rating CASOB ([19]; 63 g ai/ha)
60: Pre-emerge Herbicidal Activity, phytotoxicity rating (0-100), IPOHE ([4]; 63 g ai/ha) | phytotoxicity rating SETVI ([13]; 250 g ai/ha) | phytotoxicity rating RICE ([22]; 63 g ai/ha)
40: phytotoxicity rating SETVI ([13]; 63 g ai/ha)
